# Test results published in patent US10005824B2, “Selective PYY compounds and uses thereof” (Novo Nordisk A/S, priority 2015, dated 2018).
# Columns and labels:
# human Y1 receptor = target: T1, human Y1 receptor (Homo sapiens, UniProt P25929); assay: Scintillation proximity assay (SPA) receptor binding, Y1
# T1 construct: expressed in transfected cells; host or cells: BHK-21 clone 6-482-8, IPTG-induced (membrane preparation)
# T1 sequence (P25929 1-384): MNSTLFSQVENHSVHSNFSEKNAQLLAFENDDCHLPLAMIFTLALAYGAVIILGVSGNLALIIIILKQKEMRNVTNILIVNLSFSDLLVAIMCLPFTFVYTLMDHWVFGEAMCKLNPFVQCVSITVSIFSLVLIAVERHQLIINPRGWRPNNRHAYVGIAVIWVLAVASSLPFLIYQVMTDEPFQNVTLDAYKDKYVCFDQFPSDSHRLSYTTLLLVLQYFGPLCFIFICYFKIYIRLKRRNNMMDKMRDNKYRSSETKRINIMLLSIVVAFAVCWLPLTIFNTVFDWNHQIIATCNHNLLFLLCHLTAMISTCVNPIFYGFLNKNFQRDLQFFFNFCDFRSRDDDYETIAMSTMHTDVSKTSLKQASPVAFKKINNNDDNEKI
# human Y2 receptor = target: T2, human Y2 receptor (Homo sapiens, UniProt P49146); assay: Scintillation proximity assay (SPA) receptor binding, Y2
# T2 construct: expressed in transfected cells; host or cells: CHO-K1 (membrane preparation)
# T2 sequence (P49146 1-381): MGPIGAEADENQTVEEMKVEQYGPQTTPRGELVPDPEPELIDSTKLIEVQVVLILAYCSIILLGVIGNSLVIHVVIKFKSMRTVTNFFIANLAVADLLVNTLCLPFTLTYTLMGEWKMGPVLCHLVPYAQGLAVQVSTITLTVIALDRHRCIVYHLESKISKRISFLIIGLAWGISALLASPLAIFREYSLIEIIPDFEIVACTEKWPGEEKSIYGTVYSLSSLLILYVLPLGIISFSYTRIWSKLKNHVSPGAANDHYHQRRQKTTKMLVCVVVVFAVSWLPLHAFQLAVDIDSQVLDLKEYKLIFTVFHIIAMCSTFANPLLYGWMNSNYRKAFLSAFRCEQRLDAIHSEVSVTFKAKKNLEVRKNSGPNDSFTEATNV
# Experimental: The purpose of this example is to test the in vitro binding of the PYY compounds to the Y1, Y2, Y4 and Y5 receptor subtypes, respectively. The receptor binding affinity is a measure of affinity of a compound for the human Y1, Y2, Y4 and Y5 receptor subtypes, respectively.
# Scintillation Proximity Assay (SPA)
# NPY-Receptor Expressing Cell Lines.
# All cells were cultured at +37° C. in a humidified atmosphere with 5% CO2. […] CHO-K1 cells stably expressing the human Y2 receptor (P49146, NPY2R_HUMAN, Uniprot) were cultured in DMEM F-12 with 10% FBS, 1% P/S, 150 μg/ml Hygromycin B and 10 μg/ml Puromycin antibiotic. CHO-K1 cells stably expressing the human Y4 receptor (P50391, NPY4R_HUMAN, Uniprot) were cultured in DMEM F-12 with 10% FBS, 1% P/S, 10 μg/ml Puromycin. HEK-293 cells stably expressing the human Y5 receptor (Q15761, NPY5R_HUMAN, Uniprot) were cultured in DMEM F-12 medium containing 10% FBS, 1% Penicillin-Streptomycin, 250 μg/ml G418 and 1 μg/ml puromycin. […]
# Plates were sealed and incubated at +25° C. for 2 hours in a plate shaker set at 400 rpm and thereafter centrifuged at 1500 rpm for 10 minutes prior to reading of luminescence on a microplate scintillation and luminescence counter. […] Displacement of radioligand was measured as reduction in luminescence and IC50 values were calculated by nonlinear regression analysis of sigmoidal dose-response curves.
structure (smiles),measurement,setting,value
"CC(C)CC(=O)N[C@@H](CCCNC(=N)N)C(=O)N1CCC[C@H]1C(=O)N[C@@H](CCC(=O)O)C(=O)N[C@@H](CCCCNC(=O)CC[C@H](NC(=O)CCCCCCCCCCCCCCCCC(=O)O)C(=O)O)C(=O)N1CCC[C@H]1C(=O)N[C@H](C(=O)N[C@@H](CCC(=O)O)C(=O)N[C@@H](CC(=O)O)C(=O)N[C@@H](C)C(=O)N[C@@H](CO)C(=O)N1CCC[C@H]1C(=O)N[C@@H](CCC(=O)O)C(=O)N[C@@H](CCC(=O)O)C(=O)N[C@@H](CC(C)C)C(=O)N[C@@H](CCC(N)=O)C(=O)N[C@@H](CCCNC(=N)N)C(=O)N[C@@H](Cc1ccc(O)cc1)C(=O)N[C@@H](Cc1ccc(O)cc1)C(=O)N[C@H](C(=O)N[C@@H](CO)C(=O)N[C@@H](CC(C)C)C(=O)N[C@@H](CCCNC(=N)N)C(=O)N[C@@H](Cc1c[nH]cn1)C(=O)N[C@@H](Cc1ccc(O)cc1)C(=O)N[C@@H](Cc1ccc(O)cc1)C(=O)N[C@@H](CC(N)=O)C(=O)N[C@@H](Cc1c[nH]c2ccccc12)C(=O)N[C@@H](CC(C)C)C(=O)N[C@H](C(=O)N[C@@H](CCCNC(=N)N)C(=O)N[C@@H](CCC(N)=O)C(=O)N[C@@H](CCCNC(=N)N)C(=O)N[C@@H](Cc1ccc(O)cc1)C(N)=O)[C@@H](C)O)C(C)C)[C@@H](C)O [Compound 44, N{alpha-4}-(3-Methylbutanoyl)-N{Epsilon-7}-[(4S)-4-carboxy-4-(17-carboxy-heptadecanoylamino)butanoyl]-[Arg4,Lys7,Thr9,Gln18,Val22,Tyr28,Trp30,Leu31]hPYY(4-36)]",Ki,human Y1 receptor,> 10 µM
same,Ki,human Y2 receptor,0.33 nM
